Experimental data taken from patent publication US7799821B2, “Therapeutic compounds” (Allergan, Inc., priority 2004, dated 2010).
Read-outs that look alike come from different tables or passages of the source.

Experiments:
human EP2 receptors = target: T1, human EP2 receptors (Homo sapiens, UniProt P43116); assay: Competition radioligand binding ([3H]PGE2), EP2; settings: read-out: BINDING IC50 HEP2
T1 construct: expressed in transfected cells; host or cells: HEK 293
Description: Competition binding experiments were performed in a medium containing Hank's balanced salt solution, […], membranes (˜60 μg protein) or 2×10^5 cells from HEK 293 cells stably expressing human EP2 receptors, [^3H]PGE2 (10 nM) and various concentrations of test compounds in a total volume of 300 μl. Reaction mixtures were incubated at 23° C. for 60 min, and were filtered over Whatman GF/B filters under vacuum. Filters were washed three times with 5 ml ice-cold buffer containing 50 mM Tris/HCl (pH 7.3). Non-specific binding was estimated in the presence of excess unlabeled PGE2 (10 μM). Binding data fitted to the binding model for a single class of binding sites, using nonlinear regression analysis. IC50 values thus obtained were converted to Ki using the equation of Ki=(IC50/(1+[L]/KD) where [L] represents PGE2 concentration (10 nM) and KD the dissociation constant for [^3H]PGE2 at human EP2 receptors (40 nM).
HEK-293 cells stably expressing the human or feline FP receptor, or EP1, EP2, or EP4 receptors were washed with TME buffer, scraped from the bottom of the flasks, and homogenized for 30 sec using a Brinkman PT 10/35 polytron. TME buffer was added to achieve a final 40 ml volume in the centrifuge tubes (the composition of TME is 100 mM TRIS base, 20 mM MgCl2, […]; 10N HCl is added to achieve a pH of 7.4).
The cell homogenate was centrifuged at 19000 r.p.m. for 20 min at 4° C. using a Beckman Ti-60 rotor. The resultant pellet was resuspended in TME buffer to give a final 1 mg/ml protein concentration, as determined by Biorad assay. Radioligand binding competition assays vs. [^3H-]17 —phenyl PGF2α (5 nM) were performed in a 100 μl volume for 60 min. Binding reactions were started by adding plasma membrane fraction. The reaction was terminated by the addition of 4 ml ice-cold TRIS-HCl buffer and rapid filtration through glass fiber GF/B filters using a Brandel cell harvester. The filters were washed 3 times with ice-cold buffer and oven dried for one hour.
[^3H-] PGE2 (specific activity 180 Ci mmol) was used as the radioligand for EP receptors. [^3H] 17-phenyl PGF2α was employed for FP receptor binding studies. Binding studies employing EP1, EP2, EP4 and FP receptors were performed in duplicate in at least three separate experiments. A 200 μl assay volume was used. Incubations were for 60 min at 25° C. and were terminated by the addition of 4 ml of ice-cold 50 mM TRIS-HCl, followed by rapid filtration through Whatman GF/B filters and three additional 4 ml washes in a cell harvester (Brandel). Competition studies were performed using a final concentration of 5 nM [^3H]—PGE2, or 5 nM [^3H] 17-phenyl PGF2α and non-specific binding determined with 10^−5M of unlabeled PGE2, or 17-phenyl PGF2α, according to receptor subtype studied.

hEP2/Gqs5 = target: T2, hEP2/Gqs5 (Homo sapiens, UniProt P43116); assay: FLIPR calcium signal, hEP2; type: cell-based
T2 construct: expressed in transfected cells; host or cells: HEK-293(EBNA)
Description: (§1) HEK-293(EBNA) cells, stably expressing one type or subtype of recombinant human prostaglandin receptors (prostaglandin receptors expressed: hDP/Gqs5; hEP1; hEP2/Gqs5; hEP3A/Gqi5; hEP4/Gqs5; hFP; hIP; hTP), were cultured in 100 mm culture dishes in high-glucose DMEM medium containing 10% fetal bovine serum, 2 mM 1-glutamine, 250 μg/ml geneticin (G418) and 200 μg/ml hygromycin B as selection markers, and 100 units/ml penicillin G, 100 μg/ml streptomycin and 0.25 μg/ml amphotericin B. • (b) Calcium Signal Studies on the FLIPR™
(§2) Cells were seeded at a density of 5×10^4 cells per well in Biocoat® Poly-D-lysine-coated black-wall, clear-bottom 96-well plates (Becton-Dickinson) and allowed to attach overnight in an incubator at 37° C. Cells were then washed two times with HBSS-HEPES buffer (Hanks Balanced Salt Solution without bicarbonate and phenol red, 20 mM HEPES, pH 7.4) using a Denley Cellwash plate washer (Labsystems). After 45 minutes of dye-loading in the dark, using the calcium-sensitive dye Fluo-4 AM at a final concentration of 2 μM, plates were washed four times with HBSS-HEPES buffer to remove excess dye leaving 100 μl in each well. Plates were re-equilibrated to 37° C. for a few minutes.
(§3) Cells were excited with an Argon laser at 488 nm, and emission was measured through a 510-570 nm bandwidth emission filter (FLIPR™, Molecular Devices, Sunnyvale, Calif.). Drug solution was added in a 50 μl volume to each well to give the desired final concentration. The peak increase in fluorescence intensity was recorded for each well. On each plate, four wells each served as negative (HBSS-HEPES buffer) and positive controls (standard agonists: BW245C (hDP); PGE2 (hEP1; hEP2/Gqs5; hEP3A/Gqi5; hEP4/Gqs5); PGF2α (hFP); carbacyclin (hIP); U-46619 (hTP), depending on receptor). The peak fluorescence change in each drug-containing well was then expressed relative to the controls.
(§4) Compounds were tested in a high-throughput (HTS) or concentration-response (CoRe) format. In the HTS format, forty-four compounds per plate were examined in duplicates at a concentration of 10^−5 M. To generate concentration-response curves, four compounds per plate were tested in duplicates in a concentration range between 10^−5 and 10^−11 M. The duplicate values were averaged. In either, HTS or CoRe format each compound was tested on at least 3 separate plates using cells from different passages to give an n≧3.

hEP4/Gqs5 = target: T3, hEP4/Gqs5 (Homo sapiens, UniProt P35408); assay: FLIPR calcium signal, hEP4; type: cell-based
T3 construct: expressed in transfected cells; host or cells: HEK-293(EBNA)
Description: as §1, §2, §3, §4

[1] = FLIPR Ca2+ signal, HEK-293(EBNA), read-out: FUNCTIONAL EC50 HEP2
[2] = FLIPR Ca2+ signal, HEK-293(EBNA), read-out: FUNCTIONAL EC50 HEP4
[3] = read-out: FUNCTIONAL Ca2+ EC50 HEP2
[4] = read-out: FUNCTIONAL Ca2+ EC50 HEP4

T3 sequence (P35408 whole entry): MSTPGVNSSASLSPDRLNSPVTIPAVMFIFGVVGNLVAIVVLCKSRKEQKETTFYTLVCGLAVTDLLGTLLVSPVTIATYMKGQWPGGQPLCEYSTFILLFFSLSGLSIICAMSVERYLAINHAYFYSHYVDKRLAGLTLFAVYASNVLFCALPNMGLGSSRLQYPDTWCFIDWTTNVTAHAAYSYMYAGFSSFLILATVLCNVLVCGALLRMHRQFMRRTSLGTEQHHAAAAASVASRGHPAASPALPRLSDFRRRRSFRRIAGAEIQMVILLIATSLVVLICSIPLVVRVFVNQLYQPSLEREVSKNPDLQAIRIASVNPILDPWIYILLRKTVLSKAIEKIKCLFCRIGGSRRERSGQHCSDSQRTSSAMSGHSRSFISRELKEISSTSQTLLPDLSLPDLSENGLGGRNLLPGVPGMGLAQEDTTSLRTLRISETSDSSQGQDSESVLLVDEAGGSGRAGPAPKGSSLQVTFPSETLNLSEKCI
T1 sequence (P43116 whole entry): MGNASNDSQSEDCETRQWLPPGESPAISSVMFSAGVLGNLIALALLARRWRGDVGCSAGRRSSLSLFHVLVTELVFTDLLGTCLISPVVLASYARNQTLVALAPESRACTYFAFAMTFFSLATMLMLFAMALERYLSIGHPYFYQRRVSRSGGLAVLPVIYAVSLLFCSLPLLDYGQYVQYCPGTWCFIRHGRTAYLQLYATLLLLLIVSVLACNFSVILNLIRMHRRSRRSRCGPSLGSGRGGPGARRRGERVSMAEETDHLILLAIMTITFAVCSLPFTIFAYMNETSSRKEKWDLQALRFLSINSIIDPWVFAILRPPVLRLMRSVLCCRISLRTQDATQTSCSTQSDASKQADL
T2 sequence (P43116 whole entry): as above

SMILES	EC50 (hEP2/Gqs5; [1]) [µM]	further results
O=C(O)CCC/C=C\C[C@@H]1[C@@H](c2ccc(CO)cc2)[C@H](O)C[C@H]1Cl		IC50 (human EP2 receptors): 13.2 µM
COC(=O)CCCCCC[C@@H]1[C@@H](c2ccc(C(C)(C)CO)cc2)[C@H](O)C[C@H]1Cl [drawing 119]	> 10	EC50 (hEP4/Gqs5; [2]): > 10 µM
COC(=O)CCCCCC[C@@H]1[C@@H](c2ccc(C(O)C(C)(C)C)cc2)[C@H](O)C[C@H]1Cl (some centres unmarked) [drawing 133]	6.58	EC50 (hEP4/Gqs5; [2]): > 10 µM
COC(=O)CCCCCC[C@@H]1[C@@H](c2ccc(CO)cc2)[C@H](O)C[C@H]1Cl		EC50 (hEP4/Gqs5; [2]): > 10 µM
CC(C)(CO)c1ccc([C@@H]2[C@@H](C/C=C\CCCC(=O)O)[C@H](Cl)C[C@H]2O)cc1 [drawing 118]	0.173	IC50 (human EP2 receptors): 4.19 µM
O=C(O)COCCCC[C@@H]1[C@@H](c2ccc(C(O)C3CCCCC3)cc2)[C@H](O)C[C@H]1Cl (some centres unmarked)	20.8	
COC(=O)CCC/C=C\C[C@@H]1[C@@H](c2ccc(C3(O)CCC3)cc2)[C@H](O)C[C@H]1Cl	> 10	
CCCC1(C(O)c2cccc([C@@H]3[C@@H](Cc4cccc(OCC(=O)O)c4)[C@H](Cl)C[C@H]3O)c2)CCC1 (some centres unmarked)	0.266	IC50 (human EP2 receptors): 5.2 µM
COC(=O)CCC/C=C\C[C@H]1C(=O)CC[C@@H]1c1ccc([C@H](O)C2CCCCC2)cc1		EC50 (hEP2/Gqs5; [3]): > 10 µM
O=C(O)CCC/C=C\C[C@@H]1[C@@H](c2ccc(C(O)C3CCCCC3)cc2)[C@H](O)C[C@H]1Cl (some centres unmarked) [drawing 77]	0.392	
COC(=O)CCC/C=C\C[C@@H]1[C@@H](c2ccc(C(C)(C)CO)cc2)[C@H](O)C[C@H]1Cl [drawing 113]		EC50 (hEP4/Gqs5; [2]): > 10 µM
CC(C)(C)C(O)c1ccc([C@@H]2[C@@H](C/C=C\CCCC(=O)O)[C@H](Cl)C[C@H]2O)cc1 (some centres unmarked)	0.779	IC50 (human EP2 receptors): 1.54 µM; EC50 (hEP4/Gqs5; [2]): > 10 µM
COC(=O)CCC/C=C\C[C@H]1C(=O)C[C@@H](O)[C@@H]1c1ccc(C(O)C2CCCCC2)cc1 (some centres unmarked)	> 10	EC50 (hEP4/Gqs5; [2]): > 10 µM
CC(C)(CO)c1ccc([C@@H]2[C@@H](CCCCCCC(=O)O)[C@H](Cl)C[C@H]2O)cc1	0.708	IC50 (human EP2 receptors): 8.95 µM; EC50 (hEP4/Gqs5; [2]): > 10 µM
O=C(O)CCCCCC[C@@H]1[C@@H](c2ccc(C(O)C3CCCCC3)cc2)[C@H](O)C[C@H]1Cl (some centres unmarked)	2.81	
CCCC1(C(O)c2ccc([C@@H]3[C@@H](C/C=C\CCCC(=O)O)[C@H](Cl)C[C@H]3O)cc2)CCC1 (some centres unmarked)	2.27	
CC(C)(CO)c1ccc([C@H]2[C@H](O)CC(=O)[C@@H]2CCCCCCC(=O)O)cc1	0.526	IC50 (human EP2 receptors): 18.7 µM
O=C(O)CCCCCC[C@@H]1[C@@H](c2ccc(CO)cc2)[C@H](O)C[C@H]1Cl	> 10	
CCCC1(C(O)c2ccc([C@H]3[C@H](O)CC(=O)[C@@H]3CCCCCCC(=O)O)cc2)CCC1 (some centres unmarked)	0.635	
CC(C)(CO)c1ccc([C@@H]2[C@@H](C/C=C\CCCC(=O)O)[C@H](Cl)C[C@H]2O)cc1 [drawing 114]	> 10	
O=C(O)CCC/C=C\C[C@H]1C(=O)C[C@@H](O)[C@@H]1c1ccc(C(O)C2CCCCC2)cc1 (some centres unmarked)	> 10	
CCCC1(C(O)c2ccc([C@@H]3[C@@H](C/C=C\CCCC(=O)OC)[C@H](Cl)C[C@H]3O)cc2)CCC1 (some centres unmarked)	> 10	

SMILES	EC50 (hEP2/Gqs5; [1]) [µM]	further results
O=C(O)COCC#CCC1[C@H](Cl)C[C@@H](O)[C@@H]1c1ccc(C(O)C2CCCCC2)cc1 (some centres unmarked)	1.55	
CCCC1(C(O)c2ccc([C@@H]3[C@@H](CCCCCCC(=O)O)[C@H](Cl)C[C@H]3O)cc2)CCC1 (some centres unmarked)	0.546	
CCCCCC(O)c1ccc([C@H]2CCC(=O)[C@@H]2CCCc2ccc(C(=O)O)s2)cc1 (some centres unmarked)		EC50 (hEP4/Gqs5; [4]): > 10 µM
O=C(O)CCCCCC[C@H]1C(=O)CC[C@@H]1c1ccc(C2(O)CCC2)cc1		EC50 (hEP2/Gqs5; [3]): > 10 µM
COC(=O)CCC/C=C\C[C@@H]1[C@@H](c2ccc(C(O)C(C)C)cc2)[C@H](O)C[C@H]1Cl (some centres unmarked)	> 10	EC50 (hEP4/Gqs5; [2]): > 10 µM
COC(=O)CCCCCC[C@@H]1[C@@H](c2ccc(C(C)(C)C)cc2)[C@H](O)C[C@H]1Cl	> 10	
O=C(O)CCC/C=C\C[C@H]1C(=O)C[C@@H](O)[C@@H]1c1ccc(C2(O)CCC2)cc1	> 10	
CCCC1(C(O)c2ccc([C@H]3[C@H](O)CC(=O)[C@@H]3CCCCCCC(=O)OC)cc2)CCC1 (some centres unmarked)	> 10	
CCCC1(C(O)c2cccc([C@H]3[C@H](O)CC(=O)[C@@H]3CCCCCCC(=O)O)c2)CCC1 (some centres unmarked)	5.26	
O=C(O)CCCCCC[C@H]1C(=O)C[C@@H](O)[C@@H]1c1ccc(C(O)C2CCCCC2)cc1 (some centres unmarked)	0.45	
CCCC1([C@@H](O)c2ccc([C@H]3CCC(=O)[C@@H]3C/C=C\CCCC(=O)O)cc2)CCC1 [drawing 194]		EC50 (hEP2/Gqs5; [3]): > 10 µM; EC50 (hEP4/Gqs5; [4]): > 10 µM
COC(=O)CCCCCC[C@@H]1[C@@H](c2ccc(C(O)C(C)C)cc2)[C@H](O)C[C@H]1Cl (some centres unmarked)	> 10	EC50 (hEP4/Gqs5; [2]): > 10 µM
COC(=O)CCCCCC[C@@H]1[C@@H](c2ccc(C(O)C(C)(C)C)cc2)[C@H](O)C[C@H]1Cl (some centres unmarked) [drawing 131]	5	EC50 (hEP4/Gqs5; [2]): > 10 µM
O=C(O)COC/C=C\C[C@@H]1[C@@H](c2ccc(C(O)C3CCCCC3)cc2)[C@H](O)C[C@H]1Cl (some centres unmarked)	3.84	
O=C(O)CCC/C=C\C[C@H]1C(=O)C[C@@H](O)[C@@H]1c1ccc2c(c1)CCC2O (some centres unmarked)	0.405	IC50 (human EP2 receptors): 2.28 µM
COC(=O)CCCCCC[C@@H]1[C@@H](c2ccc(C(C)(C)CO)cc2)[C@H](O)C[C@H]1Cl [drawing 115]	> 10	EC50 (hEP4/Gqs5; [2]): 26.3 µM
COC(=O)CCCCCC[C@H]1C(=O)C[C@@H](O)[C@@H]1c1ccc(C(O)C2CCCCC2)cc1 (some centres unmarked)	> 10	
CCCC1(C(O)c2ccc([C@H]3[C@H](O)CC(=O)[C@@H]3C/C=C\CCCC(=O)O)cc2)CCC1 (some centres unmarked)	3.72	
COC(=O)CCC/C=C\C[C@@H]1[C@@H](c2ccc(C(C)(C)CO)cc2)[C@H](O)C[C@H]1Cl [drawing 117]	> 10	IC50 (human EP2 receptors): 48.8 µM
CCCC1(C(O)c2cccc([C@H]3[C@H](O)CC(=O)[C@@H]3C/C=C\CCCC(=O)NCC)c2)CCC1 (some centres unmarked)	> 10	EC50 (hEP4/Gqs5; [2]): > 10 µM
COC(=O)CCCCCC[C@H]1C(=O)C[C@@H](O)[C@@H]1c1ccc(C)cc1	> 10	
COC(=O)CCC/C=C\C[C@@H]1[C@@H](c2ccc(CO)cc2)[C@H](O)C[C@H]1Cl	> 10	
